In patent US9024041B2, “P38 MAP kinase inhibitors” (Respivert Ltd., priority 2010, dated 2015):

Assays:
[1] = tested on: Poly I:C-induced ICAM-1 expression in BEAS2B cells; assay: Poly I:C-induced ICAM-1 induction in BEAS2B cells; type: cell-based; conditions: Homo sapiens, BEAS-2B, poly I:C 1 μg/mL, 18 hr, read-out: PolyI:C/ICAM1 IC50 BEAS2B
Summary of the method: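 Human bronchial epithelial BEAS2B cells were pre-incubated with compound for 2 h, then transfected with poly I:C at 1 μg/mL. Surface ICAM-1 was measured 18 h later by cell-based ELISA (OD450–655), normalised to crystal-violet cell number (OD595). IC50 was taken from the concentration–response curve against vehicle.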

[2] = tested on: LPS-induced TNFα release in THP-1 cells; assay: LPS-induced TNFα release in THP-1 cells; type: cell-based; conditions: Homo sapiens, 3 μg/mL LPS, 4 hr
Summary of the method: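 Human monocytic cells were stimulated with 3 μg/mL E. coli LPS for 4 hr. Supernatant TNFα was measured by sandwich ELISA. Inhibition was taken relative to vehicle control, and IC50 derived from the concentration-response curve.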

[3] = tested on: Differentiated U937 cells; assay: MTT assay: cell viability on exposure to test compounds; type: cell-based, human; conditions: percentage loss of cell viability vs vehicle, 1 μg/mL; for MTT Assay (Viability) 4 h d-U937: 5% FCS; for MTT Assay (Viability) 24 h d-U937: 10% FCS
Summary of the method: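 Differentiated U937 cells were pre-incubated with compound for either 4 h in 5% FCS or 24 h in 10% FCS, then given MTT for 1 h. Formazan was dissolved in DMSO and read at 550 nm. Viability loss is expressed as % versus 0.5% DMSO vehicle, so an apparent gain appears as a negative value.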

[4] = tested on: LPS-induced TNFα release in d-U937 cells; assay: LPS-induced TNFα release in d-U937 cells; type: cell-based; conditions: Homo sapiens, dU937, 4 h; read-out: LPS/TNFα REC50 d-U937
Summary of the method: (§1)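 U937 cells differentiated with PMA (100 ng/mL, 48–72 hr), pre-incubated with compound 2 hr, then stimulated with 0.1 μg/mL E. coli O111:B4 LPS for 4 hr. Supernatant TNFα and IL-8 measured by sandwich ELISA; REC50 (TNFα) and IC50 (IL-8 inhibition vs vehicle) taken from concentration-response curves.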

[5] = target: T1, p38 MAPKα isoform (MAPK14: Invitrogen) (Homo sapiens, UniProt Q16539); assay: p38 MAPKα enzyme inhibition assay (FRET, Z-LYTE, via MAPKAP-K2 activation); type: biochemical; conditions: 2 hr pre-incubation, ATP 10.0 μM; read-out: Enzyme Inhibition IC50 p38α
T1 construct: purchased Invitrogen
T1 sequence (Q16539 whole entry, canonical isoform): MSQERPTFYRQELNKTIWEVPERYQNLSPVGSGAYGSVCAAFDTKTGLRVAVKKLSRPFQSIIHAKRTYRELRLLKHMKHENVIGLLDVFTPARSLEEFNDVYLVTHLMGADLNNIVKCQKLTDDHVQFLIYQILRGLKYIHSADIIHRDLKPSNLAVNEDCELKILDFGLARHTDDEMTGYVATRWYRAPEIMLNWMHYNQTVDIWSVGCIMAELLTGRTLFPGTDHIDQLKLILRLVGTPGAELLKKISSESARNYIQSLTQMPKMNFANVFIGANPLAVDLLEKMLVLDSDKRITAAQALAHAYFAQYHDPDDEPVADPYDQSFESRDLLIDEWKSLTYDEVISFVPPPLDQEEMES

[6] = target: T2, Recombinant, phosphorylated p38 MAPKγ (MAPK12:Invitrogen) (Homo sapiens, UniProt P53778); assay: p38 MAPKγ enzyme inhibition assay (FRET, Z-LYTE); type: biochemical; conditions: 2 hr pre-incubation, ATP 100 μM; read-out: Enzyme Inhibition IC50 p38γ
T2 construct: purchased Invitrogen
T2 sequence (P53778 1-367): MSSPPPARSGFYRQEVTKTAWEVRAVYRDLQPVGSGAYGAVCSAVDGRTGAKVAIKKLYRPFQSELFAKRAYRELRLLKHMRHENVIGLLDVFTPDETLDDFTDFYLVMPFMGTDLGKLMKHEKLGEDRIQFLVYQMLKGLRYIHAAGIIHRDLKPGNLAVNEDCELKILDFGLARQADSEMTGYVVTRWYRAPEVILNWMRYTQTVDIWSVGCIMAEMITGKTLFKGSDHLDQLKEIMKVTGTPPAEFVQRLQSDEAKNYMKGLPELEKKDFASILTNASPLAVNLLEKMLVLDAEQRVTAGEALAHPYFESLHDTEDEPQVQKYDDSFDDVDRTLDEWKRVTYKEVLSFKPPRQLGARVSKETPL

[7] = tested on: LPS-induced IL-8 release in d-U937 cells; assay: LPS-induced IL-8 release in d-U937 cells; type: cell-based; conditions: Homo sapiens, dU937, 0.1 μg/mL LPS, 4 hr
Summary of the method: as §1

IC50 [2] [nM] | EC50 [4] [nM] | IC50 [5] [nM] | IC50 [6] [nM] | IC50 [7] [nM] | SMILES | IC50 [1] [nM] | MTT Assay (Viability) 4 h d-U937 [3] [%] | MTT Assay (Viability) 24 h d-U937 [3] [%]
1 | 0.7 | 5.3 | 180 | 7 | CNC(=O)Nc1cc(Oc2ccc(NC(=O)Nc3cc(C(C)(C)C)nn3-c3ccc(O)cc3)c3ccccc23)ccn1 [Example 33, 1-(3-tert-butyl-1-(4-hydroxyphenyl)-1H-pyrazol-5-yl)-3-(4-(2-(3-methylureido)pyridin-4-yloxy)naphthalen-1-yl)urea] | 4.4 | −1.3 | −24.1
0.8 | 0.1 | 15.1 | 153 | 0.8 | COCC(=O)Nc1cc(Oc2ccc(NC(=O)Nc3cc(C(C)(C)C)nn3-c3cccc(OC)c3)c3ccccc23)ccn1 [Example 36, N-(4-(4-(3-(3-tert-butyl-1-(3-methoxyphenyl)-1H-pyrazol-5-yl)ureido)naphthalen-1-yloxy)pyridin-2-yl)-2-methoxyacetamide] | 4.9 | −5.2 | −1.6
1.5 | 1.4 | 29.1 | 117 | 18.1 | CNC(=O)Nc1cc(Oc2ccc(NC(=O)Nc3cc(C(C)(C)C)nn3-c3ccc(OC)cc3)c(C)c2C)ccn1 [Example 37, 1-(4-(4-(3-(3-tert-butyl-1-(4-methoxyphenyl)-1H-pyrazol-5-yl)ureido)-2,3-dimethylphenoxy)pyridin-2-yl)-3-methylurea] | 2.6 | 5.3 | 42.7
1.7 | 18.4 | 15.7 | 122 | 21.8 | CNC(=O)Nc1cc(Oc2ccc(NC(=O)Nc3cc(C(C)(C)C)nn3-c3ccc(OC)cc3)c3ccccc23)ccn1 [Example 38, 1-(4-(4-(3-(3-tert-butyl-1-(4-methoxyphenyl)-1H-pyrazol-5-yl)ureido)naphthalen-1-yloxy)pyridin-2-yl)-3-methylurea] | 9.8 | −1.7 | −38.2
1.8 | 1.8 | 30.7 | 81.8 | 23.2 | CNC(=O)Nc1cc(Oc2ccc(NC(=O)Nc3cc(C(C)(C)C)nn3-c3ccc(OC)nc3)c(C)c2C)ccn1 [Example 39, 1-(4-(4-(3-(3-tert-butyl-1-(6-methoxypyridin-3-yl)-1H-pyrazol-5-yl)ureido)-2,3-dimethylphenoxy)pyridin-2-yl)-3-methylurea] | 2.9 | −12.6 | 21.6
1.5 | 0.9 | 15.6 | 113 | 6.2 | COc1ccc(-n2nc(C(C)(C)C)cc2NC(=O)Nc2ccc(Oc3ccnc(NC(=O)N4CCOCC4)c3)c3ccccc23)cn1 [Example 40, N-(4-(4-(3-(3-tert-butyl-1-(6-methoxypyridin-3-yl)-1H-pyrazol-5-yl)ureido)naphthalen-1-yloxy)pyridin-2-yl)morpholine-4-carboxamide] | 4.8 | −12.1 | −12.0
7.6 | 15.2 | 26.1 | 875 | 10.4 | COCC(=O)Nc1cc(Oc2ccc(NC(=O)Nc3cc(C(C)(C)C)nn3-c3ccc(OC(F)(F)F)cc3)c3ccccc23)ccn1 [Example 41, N-(4-(4-(3-(3-tert-butyl-1-(4-(trifluoromethoxy)phenyl)-1H-pyrazol-5-yl)ureido)naphthalen-1-yloxy)pyridin-2-yl)-2-methoxyacetamide] | 21.4 | −26.2 | 1.3
